Source: US10080756B2, “Combination methods for treating cancers” (Gilead Sciences, Inc., priority 2014, dated 2018)
pEC50: −log10 of the molar value. Read-outs that look alike come from different tables or passages of the source.

Legend:
RPMI-8266 = assay: Cell Titer Glo viability assay, RPMI-8266; assay type: cell-based; conditions: RPMI8266; RPMI-8266, MM; single agent; 72 hours; read-out: Inhibition of Viability, EC50
Method: (§1) All procedures were performed at Gilead Sciences, Inc. in Branford, The compound of formula (I), cyclophosphamide, doxorubicin and vincristine sulfate were dissolved in DMSO to prepare stock solutions that were serially diluted three-fold in DMSO in a 96 well plate format at 1000× so the final starting assay concentrations tested would be 10 μM, 200 μM, 10 μM, and 1 μM respectively, for each compound. Compound plates were diluted 1:100 in RPMI without serum or additives creating a 10× stock. Cells were seeded into a 96-well plate at 10,000-20,000 cells per well in 100 μl of growth media appropriate to the cell line supplemented with 100 U/L penicillin-streptomycin. OCI-Ly3, OCI-Ly4 and OCI-Ly7 were grown in Iscove's+20% FBS, OCI-Ly19 was grown in alphaMEM+20% FBS, and all other cell lines were grown in RPMI+10% FBS. To each well, 11 μl of 10× compound was added in a final concentration of 0.1% DMSO and cells were incubated at 37° C. in 5% CO2 for 72 hours. Cell viability was assessed with Cell Titer Glo (Promega, Madison, Wis.) following the manufacturer's protocol on an Envision plate reader (Perkin Elmer, Waltham, Mass.). EC50 values were determined using a four parameter variable slope model with GraphPad Prism 6.0 software. All EC50 values represent mean values of from duplicate dose response curves.

SU-DHL-10 [1] = assay: SU-DHL-10 mouse xenograft model of diffuse large B cell lymphoma, tumor growth; assay type: in vivo; conditions: for complete or partial regressions (in words): single agents; for partial tumor regressions: treatment alone
Method: Entospletinib was evaluated for efficacy in vivo as a single agent and in combination with vincristine in a subcutaneous cell line tumor xenograft model in male SCID beige mice using the human diffuse large B-cell lymphoma cell line, SU-DHL-10 in a 2×2 dose level matrix of Entospletinib and vincristine.
Formulation—Entospletinib was formulated in a complete vehicle of 0.5% HPMC-0.2% Tween 80 (pH 3.5 50 mM acetate buffer, and the lower dose was prepared by direct dilution). The high dose formulation was mixed using a stir bar (and Polytroned briefly as needed to break up clumps of compound) to form a yellow solution (pH=1.8), which became an opaque suspension within 30 minutes. The dosing suspension was prepared fresh daily and stored at 4° C. protected from light between treatments.
The formulation for the highest dose group of vincristine was prepared by diluting the stock solution with 0.9% sterile saline, and the lower dose was prepared by direct dilution of that stock with saline. […] The dosing formulations were prepared just prior to each treatment.
Male Harlan SCID beige mice (C.B-17/IcrHsd-Prkdc^scidLyst^bg-J) were used in this study. They were 6-7 weeks old on Day 1 of the experiment and were fed irradiated Harlan 2918.15 Rodent Diet and water ad libitum. Animals were housed in static cages with Bed-O'Cobs™ bedding (The Andersons Lab Bedding Products) inside Biobubble® Clean Rooms that provide H.E.P.A filtered air into the bubble environment at 100 complete air changes per hour. All treatments, body weight determinations, and tumor measurements were carried out in the bubble environment. The environment was controlled to a temperature range of 70°±2° F. and a humidity range of 30-70%.
SU-DHL-10 cells were obtained from Leibniz Institute DSMZ-German Collection of Microorganisms and Cell Cultures (DSMZ). They were grown in RPMI 1640 medium which was modified with 1% 100 mM Na pyruvate, 1% 1M HEPES buffer, 1% of a 45% glucose solution and supplemented with 10% non-heat-inactivated Fetal Bovine Serum (FBS) and 1% 100× Penicillin/Streptomycin/L-Glutamine (PSG). The growth environment was maintained in an incubator with a 5% CO2 atmosphere at 37° C. The cells were centrifuged at 200 rcf for 8 minutes at 8° C., the supernatant aspirated, and the pellet re-suspended in cold Dulbecco's Phosphate Buffered Saline (DPBS) by pipetting. An aliquot of the homogeneous cell suspension was diluted with a trypan blue solution and counted using a Luna automated cell counter. The pre-implantation cell viability was 91%. The cell suspension was centrifuged at 200 rcf for 8 minutes at 8° C. The supernatant was aspirated and the cell pellet was re-suspended in cold 50% serum-free medium:50% Matrigel® Matrix (Corning) to generate a final concentration of 2.5E+07 cells/ml. The cell suspension was maintained on wet ice during implantation. Following implantation, an aliquot of the remaining cells was diluted with a trypan blue solution and counted to determine the post-implantation cell viability (91%). Test animals were implanted subcutaneously, high in the axilla (just under the fore limb) on Day 0 with 5.0×10^6 cells in 0.2 ml of 50% serum-free medium: 50% Matrigel® Matrix using a 27-gauge needle and syringe.
All mice were sorted into study groups based on tumor burden (estimated from caliper measurements). Efficacy was evaluated by tumor volume/weight monitored during and after treatment. Tumor burden (mg) was measured three times weekly by using caliper measurements and converting to tumor mass by the formula for the volume of a prolate ellipsoid assuming unit density as: Tumor burden (mg)=(L×W^2)/2 • where L and W are the respective orthogonal tumor length and width measurements (mm). The criteria used for a successful distribution in this study was a mean tumor burden for all groups within 10% of the overall mean tumor burden for the study population Treatment began on Day 16 at an overall mean tumor burden of 197 mm^3. […]

OCI-LY7 = assay: Cell Titer Glo viability assay, OCI-LY7; assay type: cell-based; conditions: Homo sapiens; OCI-LY7, DLBCL; single agent; 72 hours; read-out: Inhibition of Viability, EC50
Method: as §1

SU-DHL-2 = assay: Cell Titer Glo viability assay, SU-DHL-2; assay type: cell-based; conditions: Homo sapiens; SU-DHL-2, DLBCL; single agent; 72 hours; read-out: Inhibition of Viability, EC50
Method: as §1

[2] = cited from earlier work
SU-DHL-10 [3] = assay: Cell Titer Glo viability assay, SU-DHL-10; assay type: cell-based; conditions: Homo sapiens, SU-DHL10; SU-DHL-10, DLBCL; single agent; 72 hours; read-out: Inhibition of Viability, EC50
Method: as §1

pEC50 (OCI-LY7) | pEC50 (SU-DHL-2) | pEC50 (SU-DHL-10 [3]) | SMILES | pEC50 (RPMI-8266) | Day 31 % Tumor Growth Inhibition (SU-DHL-10 [1]; Vehicle for ENTO + VCR 0.15 mg/kg Q7Dx3 (group 5)) [%] | Day 31 % Tumor Growth Inhibition (SU-DHL-10 [1]; Vehicle for ENTO + VCR 0.5 mg/kg Q7Dx3 (group 4)) [%] | complete or partial regressions (in words) (SU-DHL-10 [1]) | partial tumor regressions (SU-DHL-10 [1]) [%] | inhibition of tumor growth (in words) (SU-DHL-10 [1]; vincristine at both 0.15 and 0.5 mg/kg) | solubility ([2]; 95% ethanol) | solubility ([2]; methanol) | solubility ([2]; water) | Day 31 % Tumor Growth Inhibition (SU-DHL-10 [1]; ENTO 25 mg/kg BID + Vehicle for VCR Q7Dx3 (group 3)) [%] | Day 31 % Tumor Growth Inhibition (SU-DHL-10 [1]; ENTO 75/50 mg/kg BID + Vehicle for VCR Q7Dx3 (group 2)) [%] | inhibition of tumor growth (in words) (SU-DHL-10 [1]; Entospletinib dosed alone at 25 or 75/50 mg/kg)
8.34 | 7.19 | 7.35 | CC[C@]1(O)C[C@H]2CN(CCc3c([nH]c4ccccc34)[C@@](C(=O)OC)(c3cc4c(cc3OC)N(C=O)[C@H]3[C@@](O)(C(=O)OC)[C@H](OC(C)=O)[C@]5(CC)C=CCN6CC[C@]43[C@@H]65)C2)C1 [Vincristine, vincristine] | 7.17 | 42 | 85 | no complete or partial regressions | 0 | significant inhibition of tumor growth | only slightly soluble | soluble | freely soluble | – | – | –
< 5.52 | < 5.52 | < 5.52 | c1cn2cc(-c3ccc4cn[nH]c4c3)nc(Nc3ccc(N4CCOCC4)cc3)c2n1 [Compound of Formula I, 6-(1H-indazol-6-yl)-N-(4-morpholinophenyl)imidazo[1,2-a]pyrazin-8-amine] | < 5.52 | – | – | no complete or partial regressions | 0 | – | – | – | – | 20 | 39 | inhibited tumor growth but to a lesser degree than that seen with vincristine
